In one assay the target is T1, αllbβ3 integrin (Homo sapiens, UniProt P05106+P08514).
T1 construct: Human platelet membrane preparations were used as a source of αllbβ3 integrin; from tissue; host or cells: human platelets (membrane preparation)
Nature of the assay: ELISA: inhibition of binding of αllbβ3 integrin membrane preparation to coated extracellular matrix protein. The settings on record: human platelet membrane preparation. In short, it runs like this:
(§1)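 Integrin sources were human platelet membrane preparations for αIIbβ3 and WM-115 cells for αVβ3, each preincubated with test compound. Binding to fibrinogen- or vitronectin-coated plates (10 µg/well) was quantified with an anti-integrin β3 antibody and an HRP-coupled secondary antibody using colorimetric detection.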
For orientation: ELISA stands for enzyme-linked immunosorbent assay.

Another assay concerns the target T2, αVβ3 integrin (Homo sapiens, UniProt P05106+P06756).
T2 construct: the cell line WM-115 was used as a source of αVβ3 integrin; endogenous in cells; host or cells: WM-115 cell line
As to the kind of experiment: ELISA: inhibition of binding of αVβ3 integrin (source WM-115 cell line) to coated extracellular matrix protein. The following applies: WM-115 cell line as integrin source. An outline of the steps: as §1

The values that follow come from patent publication US20080176936A1, “Classes of Compounds that Interact with Integrins” (priority 2005, published 2008).

T2 sequence (P06756 31-889 limits assumed): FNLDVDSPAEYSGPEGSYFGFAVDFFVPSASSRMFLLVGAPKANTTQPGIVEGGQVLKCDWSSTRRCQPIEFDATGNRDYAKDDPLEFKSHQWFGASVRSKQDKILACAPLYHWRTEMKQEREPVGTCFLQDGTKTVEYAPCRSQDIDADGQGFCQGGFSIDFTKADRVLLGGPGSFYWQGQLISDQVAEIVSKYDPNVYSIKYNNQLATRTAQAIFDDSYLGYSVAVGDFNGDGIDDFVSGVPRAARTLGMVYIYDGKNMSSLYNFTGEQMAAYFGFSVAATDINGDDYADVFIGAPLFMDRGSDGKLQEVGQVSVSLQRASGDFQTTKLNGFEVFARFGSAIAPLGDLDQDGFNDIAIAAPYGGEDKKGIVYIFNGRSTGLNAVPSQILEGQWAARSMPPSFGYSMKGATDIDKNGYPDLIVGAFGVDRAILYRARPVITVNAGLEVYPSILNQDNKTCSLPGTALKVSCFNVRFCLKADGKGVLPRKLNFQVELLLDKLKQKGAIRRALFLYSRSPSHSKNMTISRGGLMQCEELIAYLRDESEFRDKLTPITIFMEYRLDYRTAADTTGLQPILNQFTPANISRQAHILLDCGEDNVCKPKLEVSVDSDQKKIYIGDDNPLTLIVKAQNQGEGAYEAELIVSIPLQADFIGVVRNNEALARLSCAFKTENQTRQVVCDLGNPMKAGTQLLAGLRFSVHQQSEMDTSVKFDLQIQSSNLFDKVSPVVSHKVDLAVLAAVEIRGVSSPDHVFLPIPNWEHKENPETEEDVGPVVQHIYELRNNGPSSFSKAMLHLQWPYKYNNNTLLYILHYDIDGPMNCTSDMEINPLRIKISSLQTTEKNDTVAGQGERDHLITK
T2 sequence (P06756 891-1048 partner limits assumed): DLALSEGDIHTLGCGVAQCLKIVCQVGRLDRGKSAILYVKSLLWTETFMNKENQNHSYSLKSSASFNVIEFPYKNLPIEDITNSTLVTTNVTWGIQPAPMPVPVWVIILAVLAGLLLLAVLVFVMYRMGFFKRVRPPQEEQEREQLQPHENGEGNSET
T2 sequence (P05106 27-788): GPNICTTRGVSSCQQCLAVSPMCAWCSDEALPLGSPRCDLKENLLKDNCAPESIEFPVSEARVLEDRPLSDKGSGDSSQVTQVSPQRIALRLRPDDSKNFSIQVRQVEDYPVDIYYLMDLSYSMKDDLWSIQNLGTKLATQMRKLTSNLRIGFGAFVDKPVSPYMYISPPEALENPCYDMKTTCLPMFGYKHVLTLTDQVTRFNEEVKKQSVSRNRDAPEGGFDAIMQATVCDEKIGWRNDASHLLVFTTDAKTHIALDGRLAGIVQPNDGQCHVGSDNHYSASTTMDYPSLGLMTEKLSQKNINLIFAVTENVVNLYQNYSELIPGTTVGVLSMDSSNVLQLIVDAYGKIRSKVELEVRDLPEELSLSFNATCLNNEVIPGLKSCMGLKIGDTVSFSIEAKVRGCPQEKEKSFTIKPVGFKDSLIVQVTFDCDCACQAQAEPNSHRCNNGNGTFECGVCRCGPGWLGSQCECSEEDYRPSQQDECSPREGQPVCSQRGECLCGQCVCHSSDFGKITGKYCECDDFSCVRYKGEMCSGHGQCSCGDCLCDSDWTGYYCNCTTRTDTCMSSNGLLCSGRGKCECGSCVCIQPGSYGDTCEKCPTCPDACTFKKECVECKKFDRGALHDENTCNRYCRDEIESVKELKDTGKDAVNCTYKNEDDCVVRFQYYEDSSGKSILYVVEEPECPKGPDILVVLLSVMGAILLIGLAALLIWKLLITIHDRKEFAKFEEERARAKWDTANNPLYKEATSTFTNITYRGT
T1 sequence (P08514 32-887 limits assumed): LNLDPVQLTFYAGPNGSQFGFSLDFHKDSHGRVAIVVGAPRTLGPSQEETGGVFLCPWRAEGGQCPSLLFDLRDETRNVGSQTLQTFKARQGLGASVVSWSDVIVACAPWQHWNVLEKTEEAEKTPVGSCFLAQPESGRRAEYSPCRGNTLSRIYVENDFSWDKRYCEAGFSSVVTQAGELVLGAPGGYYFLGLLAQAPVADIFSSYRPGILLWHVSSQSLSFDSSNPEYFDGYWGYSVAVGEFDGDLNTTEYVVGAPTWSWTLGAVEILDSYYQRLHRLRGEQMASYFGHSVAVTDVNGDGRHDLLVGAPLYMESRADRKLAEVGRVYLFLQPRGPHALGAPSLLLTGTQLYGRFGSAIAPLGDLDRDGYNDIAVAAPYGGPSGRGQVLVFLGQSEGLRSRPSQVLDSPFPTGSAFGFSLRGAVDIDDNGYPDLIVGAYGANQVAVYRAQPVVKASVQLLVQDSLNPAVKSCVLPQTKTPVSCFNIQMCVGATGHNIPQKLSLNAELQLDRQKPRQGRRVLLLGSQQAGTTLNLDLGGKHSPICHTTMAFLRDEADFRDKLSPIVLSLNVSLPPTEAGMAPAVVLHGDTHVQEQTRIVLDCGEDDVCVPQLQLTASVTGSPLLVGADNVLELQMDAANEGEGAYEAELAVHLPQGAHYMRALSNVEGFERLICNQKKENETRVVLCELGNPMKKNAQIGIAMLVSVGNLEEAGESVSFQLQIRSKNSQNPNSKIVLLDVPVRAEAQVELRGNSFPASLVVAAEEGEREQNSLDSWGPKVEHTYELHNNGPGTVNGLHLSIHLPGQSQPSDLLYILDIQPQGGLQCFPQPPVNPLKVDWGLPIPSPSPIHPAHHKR
T1 sequence (P08514 891-1039 partner limits assumed): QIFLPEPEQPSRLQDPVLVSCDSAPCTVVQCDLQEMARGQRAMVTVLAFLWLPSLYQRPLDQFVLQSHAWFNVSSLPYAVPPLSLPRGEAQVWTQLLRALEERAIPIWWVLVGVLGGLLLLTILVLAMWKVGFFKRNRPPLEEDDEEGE
T1 sequence (P05106 27-788): as the sequence (P05106 27-788) above

Regarding `CCOCC1OC(OCc2ccccc2)C(NC(=O)CCNC(=N)N)C(OCC(=O)O)C1O` (single isomer, unassigned) [Compound 92], on αllbβ3 integrin, the “INHIBITION @ 250 uM RECEPTOR allBb3 SUBSTRATE FIBRINOGEN” value is reported as “+ (36% to 60% inhibition at 250 micromolar)” and the “INHIBITION 250 uM RECEPTOR allBb3 SUBSTRATE VITRONECTIN” value is listed as “+++ (81% to 100% inhibition at 250 micromolar)”. Further, the “INHIBITION 250 uM RECEPTOR aVb3 SUBSTRATE FIBRINOGEN” value at αVβ3 integrin is recorded as “++ (61% to 80% inhibition at 250 micromolar)”.

Regarding `CCOCC1OC(OCc2ccccc2)C(NC(=O)CCNC(=N)N)C(OCC(=O)O)C1O` (single isomer, unassigned) [Compound 93], on αllbβ3 integrin, the “INHIBITION @ 250 uM RECEPTOR allBb3 SUBSTRATE FIBRINOGEN” value is listed as “− (0% to 35% inhibition at 250 micromolar)” and the “INHIBITION 250 uM RECEPTOR allBb3 SUBSTRATE VITRONECTIN” value is reported as “+++ (81% to 100% inhibition at 250 micromolar)”. For the same compound, the “INHIBITION 250 uM RECEPTOR aVb3 SUBSTRATE FIBRINOGEN” value on αVβ3 integrin is given as “+++ (81% to 100% inhibition at 250 micromolar)”.

As for `N=C(N)NCCC(=O)NC1C(OCc2ccccc2)OC(CO)C(O)C1OCC(=O)O` (single isomer, unassigned) [Compound 94], at αllbβ3 integrin, the “INHIBITION @ 250 uM RECEPTOR allBb3 SUBSTRATE FIBRINOGEN” value is given as “− (0% to 35% inhibition at 250 micromolar)” and the “INHIBITION 250 uM RECEPTOR allBb3 SUBSTRATE VITRONECTIN” value is listed as “+ (36% to 60% inhibition at 250 micromolar)”. For the same compound, the “INHIBITION 250 uM RECEPTOR aVb3 SUBSTRATE FIBRINOGEN” value at αVβ3 integrin was “− (0% to 35% inhibition at 250 micromolar)”.

For the compound `CC(=O)NC1C(OCc2ccccc2)OC(COCc2cccc(N)c2)C(O)C1OCC(=O)O` (single isomer, unassigned) [Compound 95], at αllbβ3 integrin, the “INHIBITION @ 250 uM RECEPTOR allBb3 SUBSTRATE FIBRINOGEN” value is reported as “− (0% to 35% inhibition at 250 micromolar)” and the “INHIBITION 250 uM RECEPTOR allBb3 SUBSTRATE VITRONECTIN” value is recorded as “++ (61% to 80% inhibition at 250 micromolar)”. The “INHIBITION 250 uM RECEPTOR aVb3 SUBSTRATE FIBRINOGEN” value at αVβ3 integrin is given as “− (0% to 35% inhibition at 250 micromolar)”.

With `CC(=O)NC1C(OCc2ccccc2)OC(COCc2cccc(N)c2)C(O)C1OCC(=O)O` (single isomer, unassigned) [Compound 96], at αllbβ3 integrin, the “INHIBITION @ 250 uM RECEPTOR allBb3 SUBSTRATE FIBRINOGEN” value was “− (0% to 35% inhibition at 250 micromolar)” and the “INHIBITION 250 uM RECEPTOR allBb3 SUBSTRATE VITRONECTIN” value is reported as “+ (36% to 60% inhibition at 250 micromolar)”. At αVβ3 integrin, the “INHIBITION 250 uM RECEPTOR aVb3 SUBSTRATE FIBRINOGEN” value was “− (0% to 35% inhibition at 250 micromolar)”.

Turning to `COCC1OC(OCc2ccccc2)C(NC(=O)CCNC(=N)N)C(OCc2ccc(C(=O)O)cc2)C1O` (single isomer, unassigned) [Compound 97], on αllbβ3 integrin, the “INHIBITION @ 250 uM RECEPTOR allBb3 SUBSTRATE FIBRINOGEN” value is reported as “− (0% to 35% inhibition at 250 micromolar)” and the “INHIBITION 250 uM RECEPTOR allBb3 SUBSTRATE VITRONECTIN” value is “− (0% to 35% inhibition at 250 micromolar)”. The “INHIBITION 250 uM RECEPTOR aVb3 SUBSTRATE FIBRINOGEN” value at αVβ3 integrin was “− (0% to 35% inhibition at 250 micromolar)”.

Take `COCC1OC(OCc2ccccc2)C(NC(=O)CCNC(=N)N)C(OCc2ccc(C(=O)O)cc2)C1O` (single isomer, unassigned) [Compound 98]: on αllbβ3 integrin, the “INHIBITION @ 250 uM RECEPTOR allBb3 SUBSTRATE FIBRINOGEN” value was “− (0% to 35% inhibition at 250 micromolar)” and the “INHIBITION 250 uM RECEPTOR allBb3 SUBSTRATE VITRONECTIN” value was “+++ (81% to 100% inhibition at 250 micromolar)”. For the same compound, at αVβ3 integrin, the “INHIBITION 250 uM RECEPTOR aVb3 SUBSTRATE FIBRINOGEN” value was “− (0% to 35% inhibition at 250 micromolar)”.

Consider `CCOCC1OC(OCc2ccccc2)C(NC(=O)c2cccc(N)c2)C(OCc2ccc(C(=O)O)cc2)C1O` (single isomer, unassigned) [Compound 99], for which, on αllbβ3 integrin, the “INHIBITION @ 250 uM RECEPTOR allBb3 SUBSTRATE FIBRINOGEN” value is recorded as “− (0% to 35% inhibition at 250 micromolar)” and the “INHIBITION 250 uM RECEPTOR allBb3 SUBSTRATE VITRONECTIN” value was “++ (61% to 80% inhibition at 250 micromolar)”. At αVβ3 integrin, the “INHIBITION 250 uM RECEPTOR aVb3 SUBSTRATE FIBRINOGEN” value is listed as “− (0% to 35% inhibition at 250 micromolar)”.

As to `CCOCC1OC(OCc2ccccc2)C(NC(=O)c2cccc(N)c2)C(OCc2ccc(C(=O)O)cc2)C1O` (single isomer, unassigned) [Compound 100], on αllbβ3 integrin, the “INHIBITION @ 250 uM RECEPTOR allBb3 SUBSTRATE FIBRINOGEN” value was “− (0% to 35% inhibition at 250 micromolar)” and the “INHIBITION 250 uM RECEPTOR allBb3 SUBSTRATE VITRONECTIN” value was “+++ (81% to 100% inhibition at 250 micromolar)”. Further, the “INHIBITION 250 uM RECEPTOR aVb3 SUBSTRATE FIBRINOGEN” value at αVβ3 integrin is reported as “− (0% to 35% inhibition at 250 micromolar)”.

For `Nc1cccc(C(=O)NC2C(OCc3ccccc3)OC(CO)C(O)C2OCc2ccc(C(=O)O)cc2)c1` (single isomer, unassigned) [Compound 101], on αllbβ3 integrin, the “INHIBITION @ 250 uM RECEPTOR allBb3 SUBSTRATE FIBRINOGEN” value is “− (0% to 35% inhibition at 250 micromolar)” and the “INHIBITION 250 uM RECEPTOR allBb3 SUBSTRATE VITRONECTIN” value is “++ (61% to 80% inhibition at 250 micromolar)”. Further, at αVβ3 integrin, the “INHIBITION 250 uM RECEPTOR aVb3 SUBSTRATE FIBRINOGEN” value is given as “+ (36% to 60% inhibition at 250 micromolar)”.

As to `Nc1cccc(C(=O)NC2C(OCc3ccccc3)OC(CO)C(O)C2OCc2ccc(C(=O)O)cc2)c1` (single isomer, unassigned) [Compound 102], at αllbβ3 integrin, the “INHIBITION @ 250 uM RECEPTOR allBb3 SUBSTRATE FIBRINOGEN” value is reported as “− (0% to 35% inhibition at 250 micromolar)” and the “INHIBITION 250 uM RECEPTOR allBb3 SUBSTRATE VITRONECTIN” value was “+++ (81% to 100% inhibition at 250 micromolar)”. Further, at αVβ3 integrin, the “INHIBITION 250 uM RECEPTOR aVb3 SUBSTRATE FIBRINOGEN” value is given as “+++ (81% to 100% inhibition at 250 micromolar)”.
